Laboratory results reported in patent publication US20230159510A1, “NOVEL PRMT5 INHIBITORS” (AMGEN INC., priority 2020, published 2023).
Like-named read-outs stand apart in the source and are kept apart here.

Key:
[1] = tested on: HCT116 MTAP null cells; test: HCT116 proliferation assay, MTAP null cells (CellTiter-Glo, 6 days); assay type: cell-based; conditions: 144 h, read-out: Protif_ HCT116-MTAP null IC50
In short: (§1)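 Cells were plated in RPMI 1640 with 10% fetal bovine serum and left overnight at 37° C and 5% CO2. Compound was then added as an 8- or 9-point 1:3 dilution series from a top concentration of 1 or 10 µM, alongside a DMSO-only control. Viability was read by luminescence.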

[2] = tested on: HCT116 WT cells; test: HCT116 proliferation assay, WT cells (CellTiter-Glo, 6 days); assay type: cell-based; conditions: Homo sapiens, HCT-116, 144 h, read-out: Prolif_HCT116-WT IC50
In short: as §1

[3] = target: PRMT5/MEP50 (Homo sapiens, UniProt O14744); test: MTase-Glo methyl transferase assay, Method A (Histone H4 peptide, 1 µM MTA, 24 h pre-incubation); assay type: biochemical; set-up: made in house; conditions: read-out: PRMT5 MTase Glo Ki (nM, Meth. A)
Sequence of PRMT5/MEP50 (O14744 whole entry): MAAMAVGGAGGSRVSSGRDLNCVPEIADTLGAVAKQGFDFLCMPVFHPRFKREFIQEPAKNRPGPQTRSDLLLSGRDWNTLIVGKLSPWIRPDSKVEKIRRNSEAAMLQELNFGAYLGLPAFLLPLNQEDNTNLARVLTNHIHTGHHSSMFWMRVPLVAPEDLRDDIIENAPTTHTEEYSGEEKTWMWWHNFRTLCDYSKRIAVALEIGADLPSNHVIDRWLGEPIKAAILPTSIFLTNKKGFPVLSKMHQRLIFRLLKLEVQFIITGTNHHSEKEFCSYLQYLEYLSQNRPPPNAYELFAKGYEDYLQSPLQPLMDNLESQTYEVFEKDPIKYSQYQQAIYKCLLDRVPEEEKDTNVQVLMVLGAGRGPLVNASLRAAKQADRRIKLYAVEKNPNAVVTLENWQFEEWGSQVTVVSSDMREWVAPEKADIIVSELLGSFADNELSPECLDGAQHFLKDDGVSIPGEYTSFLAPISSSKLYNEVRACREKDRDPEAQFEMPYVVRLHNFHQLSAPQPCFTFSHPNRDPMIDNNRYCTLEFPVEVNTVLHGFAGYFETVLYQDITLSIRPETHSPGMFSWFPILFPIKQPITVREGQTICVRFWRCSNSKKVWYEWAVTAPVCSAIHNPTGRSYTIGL
Sequence of PRMT5/MEP50 (Q9BQA1 whole entry partner): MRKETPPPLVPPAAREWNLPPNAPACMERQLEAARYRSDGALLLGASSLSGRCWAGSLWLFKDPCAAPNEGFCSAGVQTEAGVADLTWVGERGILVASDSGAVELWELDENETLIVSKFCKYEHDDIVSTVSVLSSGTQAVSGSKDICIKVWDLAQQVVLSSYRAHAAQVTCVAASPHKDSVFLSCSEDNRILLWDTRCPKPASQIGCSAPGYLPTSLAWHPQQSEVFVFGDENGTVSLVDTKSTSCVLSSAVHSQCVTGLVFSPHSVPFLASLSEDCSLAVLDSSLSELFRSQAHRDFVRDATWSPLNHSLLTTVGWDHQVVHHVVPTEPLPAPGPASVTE
Description: Method A: The PRMT5 inhibitory activity of test compounds was determined using the MTase-Glo™ assay (Promega), which monitors the product (S-adenosyl homocysteine or SAH) of methyltransferase reactions. The PRMT5 MTase-Glo assay was conducted in a 384-well white ProxiPlate (PerkinElmer) in a total volume of 12 µL. The PRMT5 enzymatic reaction (in 4 µL) contained 10 nM PRMT5/MEP50 (produced at Amgen), 5 µM S-adenosyl methionine (SAM, Promega), 1 µM Histone H4 (1-21)-Lys(Biotin) (Anaspec), 1 µM 5′-methylthioadenosine (MTA, Sigma) and two-fold serially diluted compounds in a reaction buffer of 50 mM Tris (pH 8.0), 50 mM NaCl, 0.01% Tween 20, 0.01% BSA, and 1 mM DTT. Test compounds were pre-incubated with PRMT5/MEP50, SAM, and MTA for 24 hours before addition of Histone H4 peptide to initiate the PRMT5 reaction. The reaction was allowed to proceed for 2 hours at room temperature and was then terminated by addition of 2 µL of 3X MTase-Glo™ Reagent (Promega) and 150 µM EPZ015666 (Sigma). After a 30-minute incubation at room temperature, 6 µL of MTase-Glo™ Detection Solution (Promega) was added and the plate was incubated at room temperature for an additional 30 minutes. The light signal corresponding to the amount of SAH produced by the PRMT5 reaction was subsequently measured using an Envision multimode reader (PerkinElmer). IC50 and KI values were obtained by analyzing dose-response curves using Genedata Screener (Genedata).

Row | SMILES | IC50 ([1]; HCT116-MTAP null) [nM] | IC50 [2] [nM] | Ki [3] [nM] | IC50 [1] [nM]
1 | C[C@H](c1ncccn1)N(Cc1ccc(C(F)(F)F)nn1)C(=O)c1cnc2nc(N)c(Br)cc2c1 (single isomer, unassigned) [Example 444] | 327 | > 10000 | 0.15 | –
2 | C[C@H](c1ncccn1)N(Cc1ccc(C(F)(F)F)nn1)C(=O)c1ccc2nc(N)c(Cl)cc2c1 (single isomer, unassigned) [Example 445] | 549 | > 10000 | 0.53 | –
3 | Cc1cc2cc(C(=O)N(Cc3ccc4ccccc4n3)[C@H](C)c3ncccn3)ccc2nc1N (single isomer, unassigned) [Example 446] | 45 | 851 | 0.04 | –
4 | Cc1cc2cc(C(=O)N(Cc3cnc4ccccc4c3)[C@H](C)c3ncccn3)ccc2nc1N (single isomer, unassigned) [Example 447] | 673 | > 10000 | 5.51 | –
5 | Cc1cc2cc(C(=O)N(Cc3ccc(Br)cn3)[C@@H]3CCCN(C)C3=O)ccc2nc1N (single isomer, unassigned) [Example 448] | 238 | 5230 | 0.32 | –
6 | Cc1cc2cc(C(=O)N(Cc3cnc(C(F)(F)F)cn3)[C@H](C)c3ncccn3)ccc2nc1N (single isomer, unassigned) [Example 449] | 168 | 5900 | 0.27 | –
7 | Cc1cc2cc(C(=O)N(Cc3ccc(Br)nn3)[C@H](C)c3ncccn3)ccc2nc1N (single isomer, unassigned) [Example 450] | 45 | 2020 | 0.13 | –
8 | Cc1cc2cc(C(=O)N(Cc3ccc(C(F)F)cn3)[C@H](C)c3ncc(F)cn3)ccc2nc1N (single isomer, unassigned) [Example 455] | 100 | 2940 | 0.16 | –
9 | Cc1cc2cc(C(=O)N(Cc3ccc(C(F)(F)F)cn3)C[C@@H](C)C(F)(F)F)ccc2nc1N (single isomer, unassigned) [Example 457] | – | > 10000 | 0.78 | 717
10 | Cc1cc2cc(C(=O)N(Cc3ncccc3F)[C@@H]3CCc4nc(C(F)(F)F)ccc43)ccc2nc1N (single isomer, unassigned) [Example 463] | 683 | – | 1.23 | –
11 | Cc1cc2cc(C(=O)N(Cc3ccc(Br)c(C)n3)[C@H](C)c3ncccn3)ccc2nc1N (single isomer, unassigned) [Example 465] | 24 | – | < 0.1 | –
12 | Nc1nc2ncc(C(=O)N(Cc3ccc(C(F)(F)F)cn3)[C@@H]3CCCc4nccnc43)cc2cc1Br (single isomer, unassigned) [Example 467] | 28 | 248 | 0.21 | –
13 | COc1cnc(CN(C(=O)c2ccc3nc(N)c(C)cc3c2)[C@H](C)c2ncccn2)cn1 (single isomer, unassigned) [Example 476] | 660 | – | 0.83 | –
14 | COc1ccc(CN(C(=O)c2cnc3nc(N)c(Br)cc3c2)[C@H](C)c2ncccn2)nn1 (single isomer, unassigned) [Example 478] | 594 | – | 0.31 | –
15 | COc1ccc(CN(C(=O)c2ccc3nc(N)c(C)cc3c2)[C@H](C)c2ncccn2)nn1 (single isomer, unassigned) [Example 517, 2-amino-N-((6-methoxy-3-pyridazinyl)methyl)-3-methyl-N-((IR)-1-(2-pyrimidinyl)ethyl)-6-quinolinecarboxamide] | 73 | – | 0.07 | –
16 | C[C@H](c1ncccn1)N(Cc1ccc(C(F)(F)F)cn1)C(=O)c1cnc2nc(N)c(I)cc2c1 [Example 838, (R)-7-amino-6-iodo-N-(1-(pyrimidin-2-yl)ethyl)-N-((5-(trifluoromethyl)pyridin-2-yl)methyl)-1,8-naphthyridine-3-carboxamide] | 56 | 1650 | – | –
17 | C[C@H](c1ncn(C)n1)N(Cc1ccc(C(F)F)cn1)C(=O)c1ccc2nc(N)c(I)cc2c1 [Example 839, (R)-2-amino-N-((5-(difluoromethyl)pyridin-2-yl)methyl)-3-iodo-N-(1-(1-methyl-1H-1,2,4-triazol-3-yl)ethyl)quinoline-6-carboxamide] | 57 | 1990 | – | –
18 | Cc1nc(CN(C(=O)c2cnc3nc(N)c(I)cc3c2)[C@H](C)c2ncccn2)ccc1C#N [Example 840, (R)-7-amino-N-((5-cyano-6-methylpyridin-2-yl)methyl)-6-iodo-N-(1-(pyrimidin-2-yl)ethy1)-1,8-naphthyridine-3-carboxamide] | 90 | 5500 | – | –

Further lines, with some results ahead:

Row | IC50 ([1]; HCT116-MTAP null) [nM] | IC50 [2] [nM] | Ki [3] [nM] | SMILES | IC50 [1] [nM]
19 | 13 | 232 | 0.02 | Cc1cc2cc(C(=O)N(Cc3ccc(C(F)(F)F)cn3)[C@@H]3CCOc4ccc(F)nc43)ccc2nc1N (single isomer, unassigned) [Example 451] | –
20 | 22 | 480 | 0.06 | Cc1cc2cc(C(=O)N(Cc3ccc(C(F)(F)F)cn3)[C@@H](c3ncccn3)C3CC3)ccc2nc1N (single isomer, unassigned) [Example 452] | –
21 | 65 | 1720 | 0.06 | CO[C@H](CN(Cc1ccc(C(F)(F)F)cn1)C(=O)c1ccc2nc(N)c(C)cc2c1)C(F)(F)F (single isomer, unassigned) [Example 453] | –
22 | 252 | 3940 | 0.15 | CO[C@@H](CN(Cc1ccc(C(F)(F)F)cn1)C(=O)c1cnc2nc(N)c(Br)cc2c1)C(F)(F)F (single isomer, unassigned) [Example 454] | –
23 | 39 | 816 | 0.3 | Cc1cc2cc(C(=O)N(Cc3ccc(C(F)(F)F)cn3)[C@@H]3CCOc4cccnc43)ccc2nc1N (single isomer, unassigned) [Example 456] | –
24 | 78 | 2340 | 0.25 | Cc1cc2cc(C(=O)N(Cc3ccc(C(F)(F)F)cn3)[C@@H]3CCOc4ncccc43)ccc2nc1N (single isomer, unassigned) [Example 459] | –
25 | 155 | 7850 | 1.82 | Cc1cc2cc(C(=O)N(Cc3ccc(C(F)(F)F)cn3)[C@@H]3CCCN(C)C3=O)ccc2nc1N (single isomer, unassigned) [Example 460] | –
26 | 322 | 7780 | 1.23 | Cc1cc2cc(C(=O)N(Cc3ccc(C(F)(F)F)cn3)[C@@H]3CCCNC3=O)ccc2nc1N (single isomer, unassigned) [Example 461] | –
27 | 349 | > 10000 | 0.29 | Cc1cc2cc(C(=O)N(Cc3ccc(C(F)(F)F)cn3)[C@@H]3CCCN(C4CC4)C3=O)ccc2nc1N (single isomer, unassigned) [Example 462] | –
28 | 71 | 1510 | 0.1 | Cc1cc2cc(C(=O)N(Cc3ccc(C(F)(F)F)cn3)[C@@H]3CCCn4ncnc43)ccc2nc1N (single isomer, unassigned) [Example 464] | –
29 | 269 | 4270 | 0.13 | Cc1cc2cc(C(=O)N(Cc3ccc(C(F)(F)F)cn3)[C@@H]3CCCC(F)(F)[C@@H]3O)ccc2nc1N (single isomer, unassigned) [Example 466] | –
30 | 27 | – | 0.06 | CC[C@H](c1ncccn1)N(Cc1ccc(C(F)(F)F)cn1)C(=O)c1ccc2nc(N)c(C)cc2c1 (single isomer, unassigned) [Example 489] | –
